Active and inactive are the calls of the source. The rule behind the calls is not given here.
Columns and labels:
Staphylococcus aureus [1] = assay: Antibacterial activity against Staphylococcus aureus ATCC 29213 measured after 18 hrs by CLSI based broth microdilution method; assay type: functional
Staphylococcus aureus [2] = assay: Antibacterial activity against methicillin-resistant Staphylococcus aureus clinical isolate 17 measured after 18 hrs by CLSI based broth microdilution method; assay type: functional
Staphylococcus aureus [3] = assay: Antibacterial activity against methicillin-resistant Staphylococcus aureus clinical isolate 21 measured after 18 hrs by CLSI based broth microdilution method; assay type: functional
Staphylococcus aureus [4] = assay: Antibacterial activity against methicillin-resistant Staphylococcus aureus clinical isolate 12 measured after 18 hrs by CLSI based broth microdilution method; assay type: functional
Staphylococcus aureus [5] = assay: Antibacterial activity against methicillin-resistant Staphylococcus aureus clinical isolate 22 measured after 18 hrs by CLSI based broth microdilution method; assay type: functional
Staphylococcus aureus [6] = assay: Antibacterial activity against methicillin-resistant Staphylococcus aureus clinical isolate 14 measured after 18 hrs by CLSI based broth microdilution method; assay type: functional
[7] = Hemolytic activity in sheep erythrocyte assessed as hemolysis incubated for 1 hr by absorbance based analysis; assay type: toxicity, cell-based, Ovis aries; conditions: sheep erythrocytes
Staphylococcus aureus [8] = assay: Bactericidal activity against Staphylococcus aureus ATCC 29213 assessed as eradication of bacteria at 8 times MIC measured after 4 hrs by time-kill assay relative to control; assay type: functional
Cell membrane [9] = assay: Disruption of cell membrane in methicillin-resistant Staphylococcus aureus clinical isolate 16 assessed as appearance of uneven surface at 16 ug/ml measured after 4 hrs by SEM analysis; assay type: cell membranes; conditions: dose 16.0 µg/ml
Cell membrane [10] = assay: Disruption of cell membrane in methicillin-resistant Staphylococcus aureus clinical isolate 16 assessed as increase in red fluorescence at 8 times MIC measured after 4 hrs by DAPI and PI staining based laser confocal microscopy based analysis; assay type: cell membranes
Cell membrane [11] = assay: Induction of cytoplasmic membrane permeabilization in methicillin-resistant Staphylococcus aureus clinical isolate 16 assessed as increase in fluorescence intensity at 8 to 32 time MIC measured for 10 mins by SYTOX green dye based fluorescence analysis; assay type: cell membranes
Cell membrane [12] = assay: Induction of cytoplasmic membrane permeabilization in methicillin-resistant Staphylococcus aureus clinical isolate 16 assessed as fold increase in fluorescence intensity at 32 time MIC measured after 35 mins by SYTOX green dye based fluorescence analysis
Cell membrane [13] = assay: Induction of cytoplasmic membrane depolarization in methicillin-resistant Staphylococcus aureus clinical isolate 16 assessed as increase in fluorescence intensity at 8 to 32 time MIC measured for 10 mins by DiSC3-5 dye based fluorescence method
Cell membrane [14] = assay: Induction of cell membrane disruption in methicillin-resistant Staphylococcus aureus clinical isolate 16 assessed as intact cells (Q3 region) at 64 ug/ml measured after 2 hrs by SYTO-9 and PI staining based flow cytometry analysis (reference value: 96.0%); assay type: cell membranes; conditions: dose 64.0 µg/ml
Cell membrane [15] = assay: Induction of cell membrane disruption in methicillin-resistant Staphylococcus aureus clinical isolate 16 assessed as dead cells (Q1 region) at 4 ug/ml measured after 2 hrs by SYTO-9 and PI staining based flow cytometry analysis (reference value: 0%); assay type: cell membranes; conditions: dose 4.0 µg/ml
Cell membrane [16] = assay: Induction of cell membrane disruption in methicillin-resistant Staphylococcus aureus clinical isolate 16 assessed as dead cells (Q1 region) at 32 ug/ml measured after 2 hrs by SYTO-9 and PI staining based flow cytometry analysis (reference value: 0%); assay type: cell membranes; conditions: dose 32.0 µg/ml
Staphylococcus aureus [17] = assay: Antibacterial activity against methicillin-resistant Staphylococcus aureus clinical isolate 16 measured after 18 hrs in presence of phosphatidylethanolamine by checkerboard broth dilution method; assay type: functional, organism-based
Staphylococcus aureus [18] = assay: Antibacterial activity against methicillin-resistant Staphylococcus aureus clinical isolate 16 measured after 18 hrs in presence of cardiolipin by checkerboard broth dilution method; assay type: functional, organism-based
[19] = Cytotoxicity in human L02 cells assessed as survival rate at 16 ug/ml measured after 24 hrs by CCK-8 method relative to control; assay type: toxicity, cell-based; conditions: at 16 µg/mL, read-out: Survival
[20] = Toxicity in female KM mouse assessed as redness in skin at 40 to 80 mg/kg, sc measured after 24 hrs; assay type: organism-based; conditions: in vivo, dose 40-80 mg/kg
[21] = Toxicity in female KM mouse assessed as swelling in skin at 40 to 80 mg/kg, sc measured after 24 hrs; assay type: organism-based; conditions: in vivo, dose 40-80 mg/kg
[22] = Toxicity in female KM mouse assessed as effect on mean corpuscular volume at upto 20 mg/kg, sc measured after 24 hrs; assay type: organism-based; conditions: in vivo
[23] = Toxicity in female KM mouse assessed as effect on albumin at upto 20 mg/kg, sc measured after 24 hrs by biochemical test; assay type: organism-based; conditions: in vivo
[24] = Toxicity in female KM mouse assessed as effect on heart at 20 mg/kg, sc measured after 24 hrs by H and E staining based analysis; assay type: organism-based; conditions: in vivo
[25] = Toxicity in female KM mouse assessed as effect on spleen at 20 mg/kg, sc measured after 24 hrs by H and E staining based analysis; assay type: organism-based; conditions: in vivo
[26] = Toxicity in female KM mouse assessed as effect on kidney at 20 mg/kg, sc measured after 24 hrs by H and E staining based analysis; assay type: organism-based; conditions: in vivo
[27] = Toxicity in female KM mouse assessed as effect on histopathological abnormalities in heart at 20 mg/kg, sc measured after 24 hrs by H and E staining based analysis; assay type: organism-based; conditions: in vivo
Staphylococcus aureus [28] = assay: Antibacterial activity against methicillin-resistant Staphylococcus aureus clinical isolate 16 infected in female KM mouse skin abscess model assessed as smooth skin on back at 10 mg/kg, sc measured after 24 hrs; assay type: functional, organism-based
Staphylococcus aureus [29] = assay: Antibacterial activity against methicillin-resistant Staphylococcus aureus clinical isolate 16 infected in female KM mouse skin abscess model assessed as effect on skin lesions at 10 mg/kg, sc measured after 24 hrs; assay type: functional, organism-based
Staphylococcus aureus [30] = assay: Antibacterial activity against methicillin-resistant Staphylococcus aureus clinical isolate 16 infected in female KM mouse skin abscess model assessed as effect on abscess in back skin at 5 mg/kg, sc measured after 24 hrs; assay type: functional, organism-based
Staphylococcus aureus [31] = assay: Antibacterial activity against methicillin-resistant Staphylococcus aureus clinical isolate 16 infected in female KM mouse skin abscess model assessed as effect on abscess in intradermal tissue at 5 mg/kg, sc measured after 24 hrs; assay type: functional, organism-based
Staphylococcus aureus [32] = assay: Antibacterial activity against methicillin-resistant Staphylococcus aureus clinical isolate 16 infected in female KM mouse skin abscess model assessed as reduction in infiltration of inflammatory cells in dermis at 10 mg/kg, sc measured after 24 hrs by H and E staining based analysis; assay type: functional, organism-based
Staphylococcus aureus [33] = assay: Antibacterial activity against methicillin-resistant Staphylococcus aureus clinical isolate 16 infected in female KM mouse skin abscess model assessed as reduction in number of MRSA cells at 5 to 10 mg/kg, sc measured after 24 hrs; assay type: functional, organism-based; conditions: dose 5-10 mg/kg
Staphylococcus aureus [34] = assay: Antibacterial activity against methicillin-resistant Staphylococcus aureus clinical isolate 16 infected in female KM mouse skin abscess model assessed as log reduction in bacterial load at 10 mg/kg, sc measured after 24 hrs (reference value: 8.508 log10CFU/g); assay type: functional
Staphylococcus aureus [35] = assay: Antibacterial activity against methicillin-resistant Staphylococcus aureus clinical isolate 16 infected in female KM mouse skin abscess model assessed as reduction in IL-6 level at 5 to 10 mg/kg, sc measured after 24 hrs by ELISA method; assay type: functional, organism-based; conditions: dose 5-10 mg/kg
[36] = Toxicity in female KM mouse skin abscess model infected with methicillin-resistant Staphylococcus aureus clinical isolate 16 assessed as effect on spleen at 5 to 10 mg/kg, sc measured after 24 hrs by H and E staining based analysis; assay type: organism-based; conditions: in vivo, dose 5-10 mg/kg

CCCCCCNC(=O)C[N+](C)(C)CCCCCOc1ccc2ccc(=O)oc2c1CC=C(C)C.[Br-]
MIC (Staphylococcus aureus [1]): 1 µg/mL
MIC (Staphylococcus aureus [2]): 1 µg/mL
MIC (Staphylococcus aureus [3]): 2 µg/mL
MIC (Staphylococcus aureus [4]): 2 µg/mL
MIC (Staphylococcus aureus [5]): 1 µg/mL
MIC (Staphylococcus aureus [6]): 1 µg/mL
HC50 at 1 h [7]: 1040 µg/mL
Activity (Staphylococcus aureus [8]): 100%
Activity (Cell membrane [9]): Active
Activity (Cell membrane [10]): Active
Activity (Cell membrane [11]): Active
fold change (FC) (Cell membrane [12]): 50
Activity (Cell membrane [13]): Active
Activity (Cell membrane [14]): 0%
Activity (Cell membrane [15]): 0.12%
Activity (Cell membrane [16]): 61.7%
Activity (Staphylococcus aureus [17]): Active
Activity (Staphylococcus aureus [18]): Active
viability at 24 h, 16 ug/ml [19]: 60%
Activity [20]: Toxic
Activity [21]: Toxic
Activity [22]: Non-Toxic
Activity [23]: Non-Toxic
Activity [24]: Non-Toxic
Activity [25]: Non-Toxic
Activity [26]: Non-Toxic
Activity [27]: Non-Toxic
Activity (Staphylococcus aureus [28]): Active
Activity (Staphylococcus aureus [29]): inactive
Activity (Staphylococcus aureus [30]): Active
Activity (Staphylococcus aureus [31]): Active
Activity (Staphylococcus aureus [32]): Active
Activity (Staphylococcus aureus [33]): Active
Activity (Staphylococcus aureus [34]): 4.458 log10CFU/g
Activity (Staphylococcus aureus [35]): Active
Activity [36]: Non-Toxic

— ChEMBL document CHEMBL5500372, “Novel natural osthole-inspired amphiphiles as membrane targeting antibacterials against methicillin-resistant Staphylococcus aureus (MRSA)” (Eur J Med Chem, 2024)
